In publication PMC12624573, “The antigen presentation landscape of cytokine-stressed human pancreatic islets” (Cell reports, 2025):

Test system: CD8+ T cells from PBMC
Test: IFN-γ ELISpot, PBMC-derived in vitro expanded CD8+ T cell lines
Type: cell-based, human
Design: key to T cell recognition by PBMC from a T1D donor: E: T cell recognition by PBMC from a T1D donor was tested and verified; see Figure 5
Details: A2 Set Peptides; PBMC T cell lines; responding donors/donors tested

Row | Sequence | T1D Donor T cell response | non-T1D Donor T cell response
1 | AILETAPKEV [compound 129, 17] | 0/4 | 0/2
2 | ALAEEVEQV [compound 87, 12] | 0/4 | 0/2
3 | ALANHLIKV [compound 96, 13] | 2/4 | 0/2
4 | ALAPAPPQV [compound 127, 16] | 0/4 | 0/2
5 | ALDGPPIKV [compound 80, 11] | 1/5 | 0/2
6 | ALKPLAAAL [compound 138, 18] | 0/4 | 0/2
7 | ALLDQALSNA [compound 111, 15] | 0/4 | 0/2
8 | ALLDVTPKAV [compound 140, 18] | 0/4 | 0/2
9 | ALLETVNRL [compound 99, 13] | 0/5 | 0/2
10 | ALMEAIHSA [compound 93, 13] | 1/4 | 0/2
11 | ALYDNVEKL [compound 89, 12] | 0/4 | 0/2
12 | AMFDQSQIQEF [compound 116, 15] | 1/4 | 0/2
13 | AQIALQPAL [compound 131, 17] | 0/4 | 0/2
14 | AQLENPAAV [compound 97, 13] | 0/4 | 0/2
15 | AQTEVIATL [compound 94] | 0/5 | 0/2
16 | ELNPKILAL [compound 100, 13] | 0/4 | 0/2
17 | FIASKGVKLV [compound 86, 12] | 0/5 | 0/2
18 | FLIRESETL [compound 109, 14] | 1/4 | 0/2
19 | FLKEPALNEA [compound 124, 16] | 0/4 | 0/2
20 | GLDDIKDLKV [peptide 112, 15] | 3/4 | 0/2
21 | GLDRLNVTV [peptide 101, 14] | 4/4 | 0/2
22 | HLANIVERV [compound 141, 18] | 0/4 | 0/2
23 | HLKALTSEL [compound 114, 15] | 0/5 | 0/2

Row | Sequence | T1D Donor T cell response | non-T1D Donor T cell response
24 | HLMDQPLSV [compound 108, 14] | 0/4 | 0/2
25 | HLTPSPVPV [compound 121] | 0/5 | 0/2
26 | HQNQLLSSL [compound 143, 18] | 0/4 | 0/2
27 | KLIQKNLAT [compound 130, 17] | 0/4 | 0/2
28 | KLLDPEDVAVQL [compound 142, 18] | 0/4 | 0/2
29 | KLQELNYNL [compound 132, 17] | 0/4 | 0/2
30 | KLTENLVAL [compound 92, 12] | 0/5 | 0/2
31 | KQFPEVIKY [compound 90, 12] | 0/4 | 0/2
32 | KQMEQISQF [compound 137, 18] | 0/4 | 0/2
33 | KVDEAVAVL [compound 83, 11] | 0/4 | 0/2
34 | KVIEINPYL [compound 123, 16] | 0/5 | 0/2
35 | LIQDRVAEV [compound 106, 14] | 1/5 | 0/2
36 | LLDEEISRV [compound 84, 11] | 0/4 | 0/2
37 | LLDVPTAAV [compound 81, 11] | 1/5 | 0/2
38 | LLSDTVQHL [compound 136, 17] | 0/4 | 0/2
39 | LQNPDLVSL [compound 119, 16] | 0/4 | 0/2
40 | QLMAEKLQL [compound 115, 15] | 0/4 | 0/2
41 | QLSDVAEKL [compound 128, 17] | 0/4 | 0/2
42 | QQQQKIIAL [compound 91, 12] | 0/5 | 0/2
43 | RLDDLKMTV [compound 82, 11] | 1/5 | 0/2
44 | RLQDELVTL [compound 110, 15] | 0/4 | 0/2
45 | RLSDAQIYV [compound 103, 14] | 0/4 | 0/2

Same assay, conditions: HPAP-A2 Pool Peptides; PBMC T cell lines; responding donors/donors tested

Row | Sequence | T1D Donor T cell response | non-T1D Donor T cell response
46 | ALDGPPIKV [compound 164] | 0/4 | 0/4
47 | ALKPLAAAL [compound 169] | 0/4 | 0/4
48 | ALLETVNRL [compound 162] | 0/4 | 0/4
49 | DVIEKIRYV [compound 159] | 0/4 | 0/4
50 | FLIEEIERL [compound 161] | 0/4 | 0/4
51 | FTNHFLVEL [compound 165] | 0/4 | 0/4
52 | IIVDIFHGL [compound 170] | 0/4 | 0/4
53 | KLLESFKI [compound 160] | 0/4 | 0/4
54 | KQFPEVIKY [compound 157] | 0/5 | 0/4
55 | KVIEINPYL [compound 166] | 0/4 | 0/4
56 | NLKEAIETI [compound 163] | 0/4 | 0/4

Same assay, conditions: MHC-I peptides; superscript E on the peptide; F = verified with C1R-A2 cells

Row | Sequence | T cell recognition by PBMC from a T1D donor
57 | ALANHLIKV | ALANHLIKV ^ E
58 | ALMEAIHSA | ALMEAIHSA ^ E
59 | AMFDQSQIQEF | AMFDQSQIQEF ^E, F
60 | GLDDIKDLKV | GLDDIKDLKV ^ E
61 | GLDRLNVTV | GLDRLNVTV ^ E
62 | RLDDLKMTV | RLDDLKMTV ^ E

Same assay, conditions: PTM and unmodified native Pool Peptides (pool PTM 1), 9-mer peptides; PBMC T cell lines; responding donors/donors tested

Row | Sequence | T1D Donor T cell response | non-T1D Donor T cell response
63 | QADFAIEAL [compound 150, non-modified native peptide, pool PTM A2] | 0/4 | 0/3

Same assay, conditions: SEC (Secretory) A2 Peptides Set; PBMC T cell lines; responding donors/donors tested

Row | Sequence | T1D Donor T cell response
64 | GSHLVEALY [compound 172, secretory hormone eluted peptide, pool SEC A2] | 0/4
65 | KEFIAWLV [compound 174, secretory hormone eluted peptide, pool SEC A2] | 0/4

Same assay, conditions: T1D donors, PBMC-derived lines (Figure 5J)

Row | Sequence | Number of donors whose CD8 T cells recognized the peptide (IFN-γ ELISpot)
66 | GLDDIKDLKV [peptide 112, 15] | three of the donors
67 | GLDRLNVTV [peptide 101, 14] | all four donors
